According to patent publication US20100267561A1, “HERBICIDAL PYRIDAZINONE DERIVATIVES” (priority 2007, published 2010):

Columns and labels:
Experiment in all cases: Test B pre-/postemergence plant response
Assay type in all cases: in vivo
soybean (Glycine max) = tested on: soybean (Glycine max)
Method in brief: (§1)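 Preemergence and postemergence (plants 2-18 cm, 1- to 4-leaf stage) applications used test chemicals in a non-phytotoxic solvent with surfactant. Plants were held in a greenhouse 13 to 15 days, then rated visually against controls on a 0-100 scale (0 no effect, 100 complete control).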

corn (Zea mays) = tested on: corn (Zea mays)
Method in brief: as §1

[1] = tested on: eastern black (E.B.) nightshade (Solanum ptycanthum); conditions: Preemergence; for Nightshade, E. B. plant response rating: scale 0 to 100
Method in brief: as §1

[2] = tested on: Russian thistle (Salsola iberica); conditions: Preemergence; for Russian Thistle plant response rating: scale 0 to 100
Method in brief: as §1

[3] = tested on: green foxtail (Setaria viridis)
Method in brief: as §1

[4] = tested on: morningglory (Ipomoea coccinea)
Method in brief: as §1

[5] = tested on: velvetleaf (Abutilon theophrasti)
Method in brief: as §1

[6] = tested on: woolly cupgrass (Eriochloa villosa)
Method in brief: as §1

[7] = tested on: surinam grass (Brachiaria decumbens)
Method in brief: as §1

[8] = tested on: bermudagrass (Cynodon dactylon); conditions: for Bermudagrass plant response rating: 8 g ai/ha
Method in brief: as §1

kochia (Kochia scoparia) = tested on: kochia (Kochia scoparia)
Method in brief: as §1

[9] = tested on: Italian ryegrass (Lolium multiflorum)
Method in brief: as §1

[10] = tested on: pigweed (Amaranthus retroflexus)
Method in brief: as §1

[11] = tested on: downy bromegrass (Bromus tectorum); conditions: for Bromegrass, Downy plant response rating: 8 g ai/ha
Method in brief: as §1

[12] = 8 g ai/ha, postemergence, 0-100 scale
[13] = Postemergence, 16 g ai/ha, scale 0 to 100
[14] = Postemergence, 31 g ai/ha, scale 0 to 100
[15] = Postemergence, 62 g ai/ha, scale 0 to 100, 0 no effect, 100 complete control
[16] = Preemergence, 31 g ai/ha, scale 0 to 100 (0 no effect, 100 complete control)
[17] = Preemergence, 62 g ai/ha, 0 to 100 scale, 0 no effect, 100 complete control
[18] = Preemergence, 8 g ai/ha, scale 0 to 100
[19] = Preemergence, 16 g ai/ha, scale 0 to 100
[20] = 31 g ai/ha, scale 0 to 100 (0 no effect, 100 complete control)
[21] = 62 g ai/ha, 0 to 100 scale, 0 no effect, 100 complete control
[22] = Preemergence, 16 g ai/ha, scale 0 to 100 (0 no effect, 100 complete control)

Cc1cc(-c2ccc(Cl)cc2)nn1-c1c(OC(=O)OCC(C)C)cnn(C)c1=O [Compound 57]
0: Soybean plant response rating (soybean (Glycine max); [12]) | Plant response rating, Soybean (soybean (Glycine max); [13]) | Plant response rating, Soybean (soybean (Glycine max); [14]) | Plant response rating, Soybean (soybean (Glycine max); [15]) | Plant response rating, Soybean (soybean (Glycine max); [16]) | Plant response rating, Soybean (soybean (Glycine max); [17]) | Soybean plant response rating (soybean (Glycine max); [18]) | Soybean plant response rating (soybean (Glycine max); [19]) | Corn plant response rating (corn (Zea mays); [12]) | Plant response rating, Corn (corn (Zea mays); [13]) | Corn plant response rating (corn (Zea mays); [18]) | Plant response rating, Nightshade, E. B. [1, 20] | Plant response rating, Nightshade, E. B. [1, 21] | Nightshade, E. B. plant response rating ([1]; 8 g ai/ha) | Nightshade, E. B. plant response rating ([1]; 16 g ai/ha) | Plant response rating, Russian Thistle [2, 20] | Plant response rating, Russian Thistle [2, 21] | Russian Thistle plant response rating ([2]; 8 g ai/ha) | Russian Thistle plant response rating ([2]; 16 g ai/ha) | Morningglory plant response rating [4, 12] | Plant response rating, Morningglory [4, 13] | Plant response rating, Morningglory [4, 14] | Plant response rating, Morningglory [4, 15] | Plant response rating, Morningglory [4, 16] | Plant response rating, Morningglory [4, 17] | Morningglory plant response rating [4, 18] | Morningglory plant response rating [4, 19] | Velvetleaf plant response rating [5, 12] | Plant response rating, Velvetleaf [5, 13] | Plant response rating, Velvetleaf [5, 14] | Plant response rating, Velvetleaf [5, 15] | Plant response rating, Velvetleaf [5, 16] | Plant response rating, Velvetleaf [5, 17] | Velvetleaf plant response rating [5, 18] | Velvetleaf plant response rating [5, 19] | Cupgrass, Woolly plant response rating [6, 18] | Kochia plant response rating (kochia (Kochia scoparia); [12]) | Plant response rating, Kochia (kochia (Kochia scoparia); [13]) | Plant response rating, Kochia (kochia (Kochia scoparia); [14]) | Plant response rating, Kochia (kochia (Kochia scoparia); [15]) | Plant response rating, Kochia (kochia (Kochia scoparia); [16]) | Plant response rating, Kochia (kochia (Kochia scoparia); [17]) | Kochia plant response rating (kochia (Kochia scoparia); [18]) | Kochia plant response rating (kochia (Kochia scoparia); [19]) | Ryegrass, Italian plant response rating [9, 18] | Pigweed plant response rating [10, 12] | Plant response rating, Pigweed [10, 13] | Plant response rating, Pigweed [10, 14] | Plant response rating, Pigweed [10, 15] | Plant response rating, Pigweed [10, 16] | Plant response rating, Pigweed [10, 17] | Pigweed plant response rating [10, 18] | Pigweed plant response rating [10, 19] | Bromegrass, Downy plant response rating ([11]; postemergence, 0-100 scale) | Plant response rating, Bromegrass, Downy [11, 22] | Bromegrass, Downy plant response rating ([11]; Preemergence, scale 0 to 100)
85: Plant response rating, Corn (corn (Zea mays); [16]) | Plant response rating, Cupgrass, Woolly [6, 16] | Plant response rating, Bermudagrass [8, 13]
75: Plant response rating, Surinam Grass [7, 13]
70: Foxtail, Green plant response rating [3, 18] | Ryegrass, Italian plant response rating [9, 19] | Plant response rating, Bromegrass, Downy [11, 17]
98: Plant response rating, Corn (corn (Zea mays); [14]) | Surinam Grass plant response rating [7, 19] | Plant response rating, Bermudagrass [8, 14]
95: Plant response rating, Corn (corn (Zea mays); [17]) | Plant response rating, Foxtail, Green [3, 13] | Plant response rating, Ryegrass, Italian [9, 13] | Plant response rating, Ryegrass, Italian [9, 14] | Plant response rating, Ryegrass, Italian [9, 15] | Plant response rating, Ryegrass, Italian [9, 16]
65: Cupgrass, Woolly plant response rating [6, 12] | Surinam Grass plant response rating [7, 12] | Bermudagrass plant response rating ([8]; postemergence, 0-100 scale) | Plant response rating, Bromegrass, Downy [11, 16]
80: Foxtail, Green plant response rating [3, 12] | Ryegrass, Italian plant response rating [9, 12]
20: Cupgrass, Woolly plant response rating [6, 19] | Plant response rating, Bromegrass, Downy [11, 13]
60: Corn plant response rating (corn (Zea mays); [19]) | Surinam Grass plant response rating [7, 18] | Plant response rating, Bromegrass, Downy [11, 15]
100: Plant response rating, Corn (corn (Zea mays); [15]) | Plant response rating, Foxtail, Green [3, 14] | Plant response rating, Foxtail, Green [3, 15] | Plant response rating, Foxtail, Green [3, 16] | Plant response rating, Foxtail, Green [3, 17] | Foxtail, Green plant response rating [3, 19] | Plant response rating, Cupgrass, Woolly [6, 14] | Plant response rating, Cupgrass, Woolly [6, 15] | Plant response rating, Cupgrass, Woolly [6, 17] | Plant response rating, Surinam Grass [7, 14] | Plant response rating, Surinam Grass [7, 15] | Plant response rating, Surinam Grass [7, 16] | Plant response rating, Surinam Grass [7, 17] | Plant response rating, Bermudagrass [8, 15] | Bermudagrass plant response rating ([8]; Preemergence, scale 0 to 100 (0 no effect, 100 complete control)) | Plant response rating, Bermudagrass [8, 22] | Plant response rating, Bermudagrass [8, 16] | Plant response rating, Bermudagrass [8, 17] | Plant response rating, Ryegrass, Italian [9, 17]
50: Plant response rating, Bromegrass, Downy [11, 14]
90: Plant response rating, Cupgrass, Woolly [6, 13]
